ChEMBL document CHEMBL1275597, “In vitro activity of the aminoglycoside antibiotic arbekacin against Acinetobacter baumannii-calcoaceticus isolated from war-wounded patients at Walter Reed Army Medical Center” (Antimicrob Agents Chemother, 2010)
Values after ≈ are worked out from the molar mass of the structure shown. Active and inactive are the calls of the source. No cut-off for these calls is given here.

How the values were obtained:
[1] = system: Acinetobacter calcoaceticus/baumannii complex; assay: (§1) Antimicrobial activity against Acinetobacter baumannii-calcoaceticus obtained from war-wounded patient assessed as susceptible isolates; type: functional
[2] = as §1; type: functional, Acinetobacter calcoaceticus/baumannii complex
[3] = Antimicrobial activity against Acinetobacter baumannii-calcoaceticus obtained from war-wounded patient assessed as susceptible isolates in presence of beta-lactamase inhibitor Sulbactam; type: functional, Acinetobacter calcoaceticus/baumannii complex
[4] = Antimicrobial activity against Acinetobacter baumannii-calcoaceticus obtained from war-wounded patient assessed as zone of inhibition at 128 ug/ml by disk diffusion method; type: functional; settings: Acinetobacter calcoaceticus/baumannii complex; read-out: IZ
[5] = Cmax in war-wounded patient infected with Acinetobacter baumannii-calcoacetius at 2 to 3 mg/kg/day; type: ADME, organism-based; settings: human, in vivo
[6] = Antimicrobial activity against Acinetobacter baumannii-calcoaceticus obtained from war-wounded patient; type: functional; settings: Acinetobacter calcoaceticus/baumannii complex
[7] = Antimicrobial activity against Acinetobacter baumannii-calcoaceticus […] in presence of imipenem; type: functional, Acinetobacter calcoaceticus/baumannii complex
[8] = Antimicrobial activity against Acinetobacter baumannii-calcoaceticus […] in presence of meropenem; type: functional, Acinetobacter calcoaceticus/baumannii complex
[9] = system: Acinetobacter calcoaceticus/baumannii complex; assay: Antimicrobial activity against Acinetobacter baumannii-calcoaceticus obtained from war-wounded patient assessed as susceptible isolates by tube dilution assay; type: functional
Homo sapiens = assay: Cmax in war-wounded patient infected with Acinetobacter baumannii-calcoacetius at 5 to 7 mg/kg/day; type: ADME, organism-based; settings: in vivo

Compound	Activity [2] [%]	also measured
COc1c(N2C[C@@H]3CCCN[C@@H]3C2)c(F)cc2c(=O)c(C(=O)O)cn(C3CC3)c12		Activity [1]: inactive
NCC[C@H](O)C(=O)N[C@@H]1C[C@H](N)[C@@H](O[C@H]2O[C@H](CN)[C@@H](O)[C@H](O)[C@H]2O)[C@H](O)[C@H]1O[C@H]1O[C@H](CO)[C@@H](O)[C@H](N)[C@H]1O [AMIKACIN]	59	
CC1(C)S[C@@H]2[C@H](NC(=O)[C@H](N)c3ccccc3)C(=O)N2[C@H]1C(=O)O [AMPICILLIN]		Activity [3]: 67.3%
NCC[C@H](O)C(=O)N[C@@H]1C[C@H](N)[C@@H](O[C@H]2O[C@H](CN)CC[C@H]2N)[C@H](O)[C@H]1O[C@H]1O[C@H](CO)[C@@H](O)[C@H](N)[C@H]1O [ARBEKACIN]	86.5	zone of inhibition at 128 µg/mL [4]: 13 mm; Cmax [5]: 20000 ng/mL; MIC [6]: 2 µg/mL (≈ 3.62 µM)
CO/N=C(\C(=O)N[C@@H]1C(=O)N2C(C(=O)[O-])=C(C[N+]3(C)CCCC3)CS[C@H]12)c1csc(N)n1 [CEFEPIME]	32.7	
CC(C)(O/N=C(\C(=O)N[C@@H]1C(=O)N2C(C(=O)[O-])=C(C[n+]3ccccc3)CS[C@H]12)c1csc(N)n1)C(=O)O [CEFTAZIDIME]	25	
O=C(O)c1cn(C2CC2)c2cc(N3CCNCC3)c(F)cc2c1=O [CIPROFLOXACIN]	14.5	
COc1c(N2CCNC(C)C2)c(F)cc2c(=O)c(C(=O)O)cn(C3CC3)c12 (stereo not drawn) [GATIFLOXACIN]	27	
C[C@@H](O)[C@H]1C(=O)N2C(C(=O)O)=C(SCCNC=N)C[C@H]12 [IMIPENEM ANHYDROUS]	55	fractional inhibitory concentration index (FICI) [7]: 0.375
C[C@H]1COc2c(N3CCN(C)CC3)c(F)cc3c(=O)c(C(=O)O)cn1c23.C[C@H]1COc2c(N3CCN(C)CC3)c(F)cc3c(=O)c(C(=O)O)cn1c23.O [LEVOFLOXACIN]	20.5	
C[C@@H](O)[C@H]1C(=O)N2C(C(=O)O)=C(S[C@@H]3CN[C@H](C(=O)N(C)C)C3)[C@H](C)[C@H]12 [MEROPENEM]	53.7	fractional inhibitory concentration index (FICI) [8]: 0.5
CN(C)c1ccc(O)c2c1C[C@H]1C[C@H]3[C@H](N(C)C)C(O)=C(C(N)=O)C(=O)[C@@]3(O)C(O)=C1C2=O [MINOCYCLINE]	92.6	
CCN1CCN(C(=O)N[C@@H](C(=O)N[C@@H]2C(=O)N3[C@@H]2SC(C)(C)[C@@H]3C(=O)O)c2ccccc2)C(=O)C1=O [PIPERACILLIN]	9.8	
NC[C@H]1O[C@H](O[C@H]2[C@H](O)[C@@H](O[C@H]3O[C@H](CO)[C@@H](O)[C@H](N)[C@H]3O)[C@H](N)C[C@@H]2N)[C@H](N)C[C@@H]1O [TOBRAMYCIN]	56	
COLISTIN		Activity [9]: 100%
GENTAMICIN [listing 1 of 2 here]		Cmax (Homo sapiens): < 4000 ng/mL
GENTAMICIN [listing 2 of 2 here]		Activity [1]: 14.5%
POLYMYXIN B		Activity [9]: 100%
